This note sets out measurements from the supplement of paper PMC6411743.
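Also: lysate dosed with Na-ATP at 0 0.005 0.05 0.5 and 2 mM.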

UniProt Q9ULR3, sequence (Q9ULR3 whole entry): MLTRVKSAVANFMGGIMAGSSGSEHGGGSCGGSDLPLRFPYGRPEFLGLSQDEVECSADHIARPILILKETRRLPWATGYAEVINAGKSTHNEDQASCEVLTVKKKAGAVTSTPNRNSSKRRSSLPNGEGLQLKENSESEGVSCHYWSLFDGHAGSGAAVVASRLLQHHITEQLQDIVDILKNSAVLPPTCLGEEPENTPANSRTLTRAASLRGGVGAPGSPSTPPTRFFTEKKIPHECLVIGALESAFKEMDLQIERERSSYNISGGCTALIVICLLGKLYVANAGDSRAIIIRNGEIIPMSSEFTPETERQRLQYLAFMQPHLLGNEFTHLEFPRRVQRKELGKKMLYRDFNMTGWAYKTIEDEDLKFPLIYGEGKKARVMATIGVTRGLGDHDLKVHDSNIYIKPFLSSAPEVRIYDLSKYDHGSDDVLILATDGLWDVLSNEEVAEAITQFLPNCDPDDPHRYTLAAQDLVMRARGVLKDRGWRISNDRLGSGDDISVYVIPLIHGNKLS
UniProt P11908, sequence (P11908 whole entry): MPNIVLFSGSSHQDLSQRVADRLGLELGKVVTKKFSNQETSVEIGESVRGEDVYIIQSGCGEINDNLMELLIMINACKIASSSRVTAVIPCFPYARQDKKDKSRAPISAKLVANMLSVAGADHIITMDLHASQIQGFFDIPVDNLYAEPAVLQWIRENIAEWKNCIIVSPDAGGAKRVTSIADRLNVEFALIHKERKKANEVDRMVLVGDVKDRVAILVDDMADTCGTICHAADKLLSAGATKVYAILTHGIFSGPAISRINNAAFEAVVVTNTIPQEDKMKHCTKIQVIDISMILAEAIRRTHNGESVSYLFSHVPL
UniProt P06400, sequence (P06400 whole entry): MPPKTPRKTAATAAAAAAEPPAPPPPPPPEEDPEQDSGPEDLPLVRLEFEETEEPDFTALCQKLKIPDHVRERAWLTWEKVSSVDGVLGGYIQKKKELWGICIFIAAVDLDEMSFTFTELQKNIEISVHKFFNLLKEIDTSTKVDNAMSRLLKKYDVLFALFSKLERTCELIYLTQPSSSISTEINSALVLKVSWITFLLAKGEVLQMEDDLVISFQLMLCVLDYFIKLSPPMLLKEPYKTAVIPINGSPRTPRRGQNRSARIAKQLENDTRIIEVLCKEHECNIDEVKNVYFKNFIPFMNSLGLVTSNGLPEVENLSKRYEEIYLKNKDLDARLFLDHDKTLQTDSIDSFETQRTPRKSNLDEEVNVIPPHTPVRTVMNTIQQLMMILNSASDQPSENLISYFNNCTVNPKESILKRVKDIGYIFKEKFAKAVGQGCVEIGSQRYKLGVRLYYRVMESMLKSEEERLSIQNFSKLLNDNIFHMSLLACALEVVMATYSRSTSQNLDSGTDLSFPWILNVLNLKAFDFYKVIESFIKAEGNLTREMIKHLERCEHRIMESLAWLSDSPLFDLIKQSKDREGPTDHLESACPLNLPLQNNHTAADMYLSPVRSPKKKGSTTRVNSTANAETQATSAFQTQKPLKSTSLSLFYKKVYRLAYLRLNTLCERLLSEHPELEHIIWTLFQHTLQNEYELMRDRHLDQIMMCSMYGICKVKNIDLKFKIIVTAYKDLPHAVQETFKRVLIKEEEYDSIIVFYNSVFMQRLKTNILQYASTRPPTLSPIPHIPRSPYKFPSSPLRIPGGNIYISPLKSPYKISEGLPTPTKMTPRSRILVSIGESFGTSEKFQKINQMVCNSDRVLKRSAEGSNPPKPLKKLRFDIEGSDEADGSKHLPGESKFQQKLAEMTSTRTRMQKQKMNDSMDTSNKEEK
UniProt P50897, sequence (P50897 whole entry): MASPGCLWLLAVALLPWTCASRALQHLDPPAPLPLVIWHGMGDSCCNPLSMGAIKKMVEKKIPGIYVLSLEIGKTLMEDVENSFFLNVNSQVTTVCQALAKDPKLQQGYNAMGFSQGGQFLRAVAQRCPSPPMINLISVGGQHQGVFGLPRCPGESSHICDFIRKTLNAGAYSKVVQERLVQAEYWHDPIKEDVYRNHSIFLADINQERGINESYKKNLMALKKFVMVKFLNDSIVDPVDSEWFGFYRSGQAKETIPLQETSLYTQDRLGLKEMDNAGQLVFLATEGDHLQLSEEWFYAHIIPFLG
UniProt Q9H875, sequence (Q9H875 whole entry): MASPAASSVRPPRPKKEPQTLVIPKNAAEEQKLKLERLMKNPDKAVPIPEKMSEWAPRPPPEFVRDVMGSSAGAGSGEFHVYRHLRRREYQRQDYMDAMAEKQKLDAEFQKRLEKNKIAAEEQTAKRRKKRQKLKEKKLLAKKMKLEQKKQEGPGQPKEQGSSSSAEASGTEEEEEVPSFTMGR
UniProt Q99460, sequence (Q99460 whole entry): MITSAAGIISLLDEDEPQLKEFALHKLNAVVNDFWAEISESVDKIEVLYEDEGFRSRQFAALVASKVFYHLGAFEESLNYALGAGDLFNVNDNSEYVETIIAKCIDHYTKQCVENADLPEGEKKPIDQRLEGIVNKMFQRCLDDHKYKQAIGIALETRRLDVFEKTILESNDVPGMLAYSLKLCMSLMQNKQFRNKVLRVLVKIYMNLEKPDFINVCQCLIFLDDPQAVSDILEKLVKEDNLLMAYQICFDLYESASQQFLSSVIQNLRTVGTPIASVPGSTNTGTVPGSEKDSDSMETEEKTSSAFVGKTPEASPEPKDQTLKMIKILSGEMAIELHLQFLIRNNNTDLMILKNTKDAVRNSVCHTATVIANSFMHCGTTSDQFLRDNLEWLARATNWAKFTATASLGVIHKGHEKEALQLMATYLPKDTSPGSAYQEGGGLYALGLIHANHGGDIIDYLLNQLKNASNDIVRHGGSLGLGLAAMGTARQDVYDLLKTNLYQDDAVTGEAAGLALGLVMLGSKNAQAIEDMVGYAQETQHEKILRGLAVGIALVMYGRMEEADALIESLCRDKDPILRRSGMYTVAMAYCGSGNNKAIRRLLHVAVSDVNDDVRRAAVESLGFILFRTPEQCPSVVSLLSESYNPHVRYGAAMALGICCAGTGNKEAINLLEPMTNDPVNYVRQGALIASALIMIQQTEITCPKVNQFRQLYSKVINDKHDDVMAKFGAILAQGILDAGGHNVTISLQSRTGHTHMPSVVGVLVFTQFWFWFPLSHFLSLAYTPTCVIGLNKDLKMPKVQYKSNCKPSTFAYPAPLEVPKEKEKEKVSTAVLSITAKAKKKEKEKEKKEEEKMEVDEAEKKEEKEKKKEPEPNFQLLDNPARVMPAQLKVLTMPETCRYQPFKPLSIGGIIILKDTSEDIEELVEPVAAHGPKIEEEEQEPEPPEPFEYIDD
UniProt Q13464, sequence (Q13464 whole entry, looked up): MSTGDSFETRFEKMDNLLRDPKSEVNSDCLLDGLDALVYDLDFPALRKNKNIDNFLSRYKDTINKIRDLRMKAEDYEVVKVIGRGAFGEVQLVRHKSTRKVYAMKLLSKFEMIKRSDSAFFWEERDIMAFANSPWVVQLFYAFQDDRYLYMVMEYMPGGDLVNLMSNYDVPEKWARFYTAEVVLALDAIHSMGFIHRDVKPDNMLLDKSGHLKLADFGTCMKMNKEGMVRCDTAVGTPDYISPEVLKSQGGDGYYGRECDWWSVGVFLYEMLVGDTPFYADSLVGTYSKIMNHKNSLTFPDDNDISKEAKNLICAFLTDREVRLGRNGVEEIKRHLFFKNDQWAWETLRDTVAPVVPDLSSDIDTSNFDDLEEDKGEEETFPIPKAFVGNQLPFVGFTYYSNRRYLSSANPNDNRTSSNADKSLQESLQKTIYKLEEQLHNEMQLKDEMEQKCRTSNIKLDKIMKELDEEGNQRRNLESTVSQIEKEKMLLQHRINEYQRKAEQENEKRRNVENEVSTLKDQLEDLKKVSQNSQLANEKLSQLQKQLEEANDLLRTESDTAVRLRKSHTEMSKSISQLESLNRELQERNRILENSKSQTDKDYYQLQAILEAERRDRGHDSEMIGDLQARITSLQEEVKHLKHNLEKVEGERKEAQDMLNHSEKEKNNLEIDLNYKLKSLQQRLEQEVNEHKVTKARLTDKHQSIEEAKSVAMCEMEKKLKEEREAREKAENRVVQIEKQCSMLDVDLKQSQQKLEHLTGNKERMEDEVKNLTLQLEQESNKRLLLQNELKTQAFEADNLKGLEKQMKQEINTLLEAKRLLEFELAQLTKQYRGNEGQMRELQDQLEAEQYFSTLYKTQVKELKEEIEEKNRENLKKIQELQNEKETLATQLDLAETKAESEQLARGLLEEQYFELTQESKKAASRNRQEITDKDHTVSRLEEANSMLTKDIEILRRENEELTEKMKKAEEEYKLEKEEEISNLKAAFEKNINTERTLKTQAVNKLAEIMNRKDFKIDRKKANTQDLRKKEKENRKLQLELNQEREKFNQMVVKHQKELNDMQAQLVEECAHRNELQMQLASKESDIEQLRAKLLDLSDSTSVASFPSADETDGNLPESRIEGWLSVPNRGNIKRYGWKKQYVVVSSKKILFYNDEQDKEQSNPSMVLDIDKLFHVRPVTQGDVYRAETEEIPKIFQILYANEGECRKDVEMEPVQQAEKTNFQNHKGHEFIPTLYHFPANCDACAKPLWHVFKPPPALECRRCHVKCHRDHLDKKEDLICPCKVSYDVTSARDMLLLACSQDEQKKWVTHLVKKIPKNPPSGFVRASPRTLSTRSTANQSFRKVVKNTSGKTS
UniProt P17980, sequence (P17980 whole entry): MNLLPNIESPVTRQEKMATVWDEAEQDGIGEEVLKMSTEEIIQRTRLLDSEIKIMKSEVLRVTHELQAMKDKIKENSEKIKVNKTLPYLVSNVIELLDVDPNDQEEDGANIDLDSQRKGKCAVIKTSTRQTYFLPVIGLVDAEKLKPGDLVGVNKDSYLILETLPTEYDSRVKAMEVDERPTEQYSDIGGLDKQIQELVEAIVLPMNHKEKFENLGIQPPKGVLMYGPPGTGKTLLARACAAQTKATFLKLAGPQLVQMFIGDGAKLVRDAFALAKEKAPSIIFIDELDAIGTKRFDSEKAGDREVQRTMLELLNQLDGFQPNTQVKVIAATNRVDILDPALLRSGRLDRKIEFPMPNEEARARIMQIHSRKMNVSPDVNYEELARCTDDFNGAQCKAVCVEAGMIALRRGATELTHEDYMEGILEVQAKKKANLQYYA

Compound in the test: Nc1ncnc2c1ncn2[C@@H]1O[C@H](COP(=O)(O)OP(=O)(O)OP(=O)(O)O)[C@@H](O)[C@H]1O [adenosine triphosphate]
Put plainly: pEC50 of ATP-induced change in protein thermal stability (2D-TPP). The gist of the method: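 Soluble protein was quantified by TMT LC-MS/MS after ultracentrifugation of Jurkat crude lysate that had been dosed at five concentrations including vehicle (10 min, room temperature), heated at 12 temperatures of 42–63.9 °C for 3 min, and incubated with NP40 and benzonase at 4 °C for 60 min. Fold changes against vehicle at each temperature were median-normalised, and pEC50 was derived from per-replicate dose-response fits over adjacent temperature pairs. Hits were called with permutation-based false discovery rate control in three independent experiments.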
Broadly, the pEC50 is the negative decadic logarithm of the EC50, by convention in mol/L. In the case of “PMVK (effect direction: stabilized) (UniProt Q15126)”, the pEC50 came out at 3.58. Next, “POLG2 (effect direction: destabilized) (UniProt Q9UHN1)”: 3.26; “POLR2C (effect direction: destabilized) (UniProt P19387)”: 3.72.

For “POLR2E (effect direction: destabilized) (UniProt P19388)”, the pEC50 is 3.45. On to “POP1 (effect direction: destabilized) (UniProt Q99575)”, for which the pEC50 was below 2.7. With “PPA1 (effect direction: destabilized) (UniProt Q15181)” the figure was 2.85; with “PPA2 (effect direction: destabilized) (UniProt Q9H2U2)”, below 2.7. As to “PPM1B (effect direction: destabilized) (UniProt O75688)”, the pEC50 was 3.15.

For the target “PPM1F (effect direction: stabilized) (UniProt P49593)”, the negative-log EC50 (pEC50) was below 2.7. As for “PPM1G (effect direction: stabilized) (UniProt O15355)”, the pEC50 is below 2.7. With “PPM1H (effect direction: destabilized) (UniProt Q9ULR3)” the figure was below 2.7; with “PPP1R7 (effect direction: stabilized) (UniProt Q15435)”, below 2.7; with “PPP2CA (effect direction: destabilized) (UniProt P67775)”, below 2.7.

Turning to “PPP2R1A (effect direction: stabilized) (UniProt P30153)”, the pEC50 was below 2.7. Next, “PPP3CA (effect direction: destabilized) (UniProt Q08209)”: 3.09; “PPP3CB (effect direction: destabilized) (UniProt P16298)”: 3.06. Next, “PPP3CC (effect direction: destabilized) (UniProt P48454)”: 2.92; “PPT1 (effect direction: stabilized) (UniProt P50897)”: 3.3; “PRCP (effect direction: stabilized) (UniProt P42785)”: 2.94. Next, “PRDX6 (effect direction: stabilized) (UniProt P30041)”: below 2.7. Regarding “PRKAB1 (effect direction: stabilized) (UniProt Q9Y478)”, the pEC50 came to 3.22. With “PRKACB (effect direction: stabilized) (UniProt P22694)” the figure was 3.91.

Turning to “PRKAG1 (effect direction: stabilized) (UniProt P54619)”, the negative logarithm of the EC50 (pEC50) stood at 3.27. “PRKAR1B (effect direction: stabilized) (UniProt P31321)”: the pEC50 came out at 3.85. Next, “PRKAR2A (effect direction: stabilized) (UniProt P13861)”: 4.03; “PRKCH (effect direction: stabilized) (UniProt P24723)”: 3.5; “PRKRIP1 (effect direction: destabilized) (UniProt Q9H875)”: 2.81. “PRPF4B (effect direction: stabilized) (UniProt Q13523)”: the pEC50 turned out to be 3.18.

For “PRPS2 (effect direction: stabilized) (UniProt P11908)”, the pEC50 is 3.33. With “PSMC2 (effect direction: stabilized) (UniProt P35998)” the figure was 4.28; with “PSMC3 (effect direction: stabilized) (UniProt P17980)”, 4.02; with “PSMC4 (effect direction: stabilized) (UniProt P43686)”, 4.09. With “PSMD1 (effect direction: stabilized) (UniProt Q99460)” the figure was 4.35; with “PSMD2 (effect direction: stabilized) (UniProt Q13200)”, 3.96. On to “PSMD3 (effect direction: stabilized) (UniProt O43242)”, for which the pEC50 worked out at 4.24.

In the case of “PSMD4 (effect direction: stabilized) (UniProt P55036)”, the pEC50 was 3.77. With “PSMD5 (effect direction: stabilized) (UniProt Q16401)” the figure was 3.99; with “PSMD6 (effect direction: stabilized) (UniProt Q15008)”, 4.15.

“PSMD7 (effect direction: stabilized) (UniProt P51665)”: the pEC50 was 4.16.

With “PSMD8 (effect direction: stabilized) (UniProt P48556)”, the pEC50 turned out to be 4.12. With “PSMD11 (effect direction: stabilized) (UniProt O00231)” the figure was 4.08; with “PSMD12 (effect direction: stabilized) (UniProt O00232)”, 4.29. Next, “PSMD13 (effect direction: stabilized) (UniProt Q9UNM6)”: 4.14; “PTAR1 (effect direction: stabilized) (UniProt Q7Z6K3)”: below 2.7.

Regarding “PTBP1 (effect direction: stabilized) (UniProt P26599)”, the pEC50 worked out at 3.15. On to “PURA (effect direction: stabilized) (UniProt Q00577)”, for which the pEC50 was found to be 3.13. Next, “PURB (effect direction: stabilized) (UniProt Q96QR8)”: below 2.7; “PUS1 (effect direction: stabilized) (UniProt Q9Y606)”: 2.99; “PUS7 (effect direction: stabilized) (UniProt Q96PZ0)”: below 2.7. With “Q5JWF2|P63092 (effect direction: stabilized) (UniProt P63092+Q5JWF2)” the figure was below 2.7; with “RAB3GAP2 (effect direction: stabilized) (UniProt Q9H2M9)”, 5.16.

For “RABGAP1 (effect direction: stabilized) (UniProt Q9Y3P9)”, the pEC50 was below 2.7. Next, “RABGEF1 (effect direction: stabilized) (UniProt Q9UJ41)”: 3.08; “RACGAP1 (effect direction: stabilized) (UniProt Q9H0H5)”: 3.69; “RAD21 (effect direction: stabilized) (UniProt O60216)”: 3.6. In the case of “RAD51 (effect direction: stabilized) (UniProt Q06609)”, the pEC50 was determined as 3.65. Take “RAD51C (effect direction: stabilized) (UniProt O43502)”: the pEC50 came out at 3.46. With “RAD54L2 (effect direction: stabilized) (UniProt Q9Y4B4)” the figure was 3.3; with “RANGAP1 (effect direction: stabilized) (UniProt P46060)”, below 2.7; with “RAP1GDS1 (effect direction: stabilized) (UniProt P52306)”, below 2.7. Next, “RAPGEF1 (effect direction: destabilized) (UniProt Q13905)”: 2.88; “RASSF5 (effect direction: stabilized) (UniProt Q8WWW0)”: 3.13; “RB1 (effect direction: stabilized) (UniProt P06400)”: 3.07. Next, “RBM26 (effect direction: stabilized) (UniProt Q5T8P6)”: 3.67. Turning to “RBMX (effect direction: destabilized) (UniProt P38159)”, the pEC50 is below 2.7. With “RDH14 (effect direction: stabilized) (UniProt Q9HBH5)” the figure was 3.2; with “RELA (effect direction: stabilized) (UniProt Q04206)”, below 2.7.

In the case of “RFK (effect direction: stabilized) (UniProt Q969G6)”, the pEC50 came out at 4.07. Next, “RFX1 (effect direction: stabilized) (UniProt P22670)”: below 2.7. With “RIOK1 (effect direction: stabilized) (UniProt Q9BRS2)”, the pEC50 was 3.11. Next, “RIOK3 (effect direction: stabilized) (UniProt O14730)”: 3.7.

With “RNASEH2C (effect direction: stabilized) (UniProt Q8TDP1)”, the pEC50 was determined as 2.76. With “RNF20 (effect direction: stabilized) (UniProt Q5VTR2)” the figure was below 2.7; with “ROCK1 (effect direction: stabilized) (UniProt Q13464)”, 2.77; with “RPA1 (effect direction: stabilized) (UniProt P27694)”, 3.58. With “RPL10 (effect direction: destabilized) (UniProt P27635)” the figure was 3.88; with “RPL10A (effect direction: destabilized) (UniProt P62906)”, below 2.7. For the target “RPL13 (effect direction: destabilized) (UniProt P26373)”, the pEC50 was above 5.3. With “RPL14 (effect direction: destabilized) (UniProt P50914)” the figure was 3.99. Next, “RPL17 (effect direction: destabilized) (UniProt P18621)”: 3.27.
